Experiments:
[1] = biological target: T1, Amine oxidase [flavin-containing] A (Mus musculus, UniProt Q64133); assay: Inhibition of MAO-A in mouse brain mitochondrial fraction using kynuramine as substrate after 30 mins by fluorometric analysis
T1 sequence (Q64133 whole entry): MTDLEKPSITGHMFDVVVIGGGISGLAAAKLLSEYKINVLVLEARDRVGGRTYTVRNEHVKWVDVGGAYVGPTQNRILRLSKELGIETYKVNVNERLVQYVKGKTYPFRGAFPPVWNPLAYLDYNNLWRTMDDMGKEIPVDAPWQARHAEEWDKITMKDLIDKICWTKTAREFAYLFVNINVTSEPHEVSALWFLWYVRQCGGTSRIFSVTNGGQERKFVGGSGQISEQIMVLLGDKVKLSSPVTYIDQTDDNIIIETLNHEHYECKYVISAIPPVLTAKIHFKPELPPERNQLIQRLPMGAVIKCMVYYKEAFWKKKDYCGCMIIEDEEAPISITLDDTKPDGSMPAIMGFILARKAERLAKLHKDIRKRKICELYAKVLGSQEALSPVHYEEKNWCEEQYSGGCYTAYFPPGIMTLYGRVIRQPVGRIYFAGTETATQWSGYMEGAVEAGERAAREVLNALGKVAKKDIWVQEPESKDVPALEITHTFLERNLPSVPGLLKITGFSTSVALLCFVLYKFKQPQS

[2] = biological target: T2, Amine oxidase [flavin-containing] A (Homo sapiens, UniProt P21397); assay: Inhibition of human recombinant MAO-A expressed in baculovirus infected BTI insect cells using kynuramine as substrate assessed as residual activity at 10 uM after 20 mins by spectrophotometric analysis relative to control; details: read-out: Activity
T2 sequence (P21397 whole entry): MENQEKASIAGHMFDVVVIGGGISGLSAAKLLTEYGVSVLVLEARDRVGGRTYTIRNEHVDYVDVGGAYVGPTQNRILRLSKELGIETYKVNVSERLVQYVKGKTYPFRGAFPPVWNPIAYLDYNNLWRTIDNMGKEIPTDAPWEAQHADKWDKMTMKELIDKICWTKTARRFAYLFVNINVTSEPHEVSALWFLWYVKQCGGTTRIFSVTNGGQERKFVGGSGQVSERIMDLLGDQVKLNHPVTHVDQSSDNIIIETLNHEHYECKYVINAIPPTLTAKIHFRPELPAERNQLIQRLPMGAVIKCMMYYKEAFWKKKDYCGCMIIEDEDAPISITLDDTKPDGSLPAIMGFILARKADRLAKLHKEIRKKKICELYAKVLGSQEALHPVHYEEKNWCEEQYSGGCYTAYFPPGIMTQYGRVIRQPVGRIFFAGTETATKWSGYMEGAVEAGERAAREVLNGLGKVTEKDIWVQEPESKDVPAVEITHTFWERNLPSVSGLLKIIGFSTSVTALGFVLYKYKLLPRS

[3] = biological target: T3, Amine oxidase [flavin-containing] B (Homo sapiens, UniProt P27338); assay: Inhibition of human recombinant MAO-B expressed in baculovirus infected BTI insect cells using benzylamine as substrate assessed as residual activity at 10 uM after 30 mins by spectrophotometric analysis relative to control; details: 0.5 h, read-out: Activity
T3 sequence (P27338 whole entry): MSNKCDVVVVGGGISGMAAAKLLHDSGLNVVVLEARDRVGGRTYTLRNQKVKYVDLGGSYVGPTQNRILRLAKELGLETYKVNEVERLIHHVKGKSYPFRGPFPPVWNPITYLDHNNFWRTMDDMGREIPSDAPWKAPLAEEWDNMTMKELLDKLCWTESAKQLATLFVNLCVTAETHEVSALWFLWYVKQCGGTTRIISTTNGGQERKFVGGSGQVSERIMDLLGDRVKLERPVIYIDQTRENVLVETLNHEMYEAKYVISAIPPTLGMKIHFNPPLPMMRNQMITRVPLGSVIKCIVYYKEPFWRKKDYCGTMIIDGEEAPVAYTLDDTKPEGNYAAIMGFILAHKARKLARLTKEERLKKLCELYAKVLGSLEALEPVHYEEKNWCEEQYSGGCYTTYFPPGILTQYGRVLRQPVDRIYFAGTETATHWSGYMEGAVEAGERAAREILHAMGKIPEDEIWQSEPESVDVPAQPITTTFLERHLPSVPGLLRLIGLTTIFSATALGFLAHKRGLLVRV

[4] = biological target: T3, Amine oxidase [flavin-containing] B; assay: biochemical; format: cell-based
[5] = biological target: Acetylcholinesterase (Electrophorus electricus, UniProt O42275); assay: Inhibition of electric eel AChE using acetylthiocholine iodide as substrate preincubated for 15 mins followed by substrate addition by Ellman's method
[6] = species: Homo sapiens; assay: Selectivity index, ratio of IC50 for human recombinant MAO-B expressed in baculovirus infected BTI insect cells to IC50 for human recombinant MAO-A expressed in baculovirus infected BTI insect cells
[7] = biological target: T4, Amine oxidase [flavin-containing] A (Rattus norvegicus, UniProt P21396); assay: Inhibition of MAO-A in Sprague-Dawley rat brain mitochondrial fraction after 10 mins in presence of [14C]5-hydroxytryptamine by liquid scintillation analysis
T4 sequence (P21396 whole entry): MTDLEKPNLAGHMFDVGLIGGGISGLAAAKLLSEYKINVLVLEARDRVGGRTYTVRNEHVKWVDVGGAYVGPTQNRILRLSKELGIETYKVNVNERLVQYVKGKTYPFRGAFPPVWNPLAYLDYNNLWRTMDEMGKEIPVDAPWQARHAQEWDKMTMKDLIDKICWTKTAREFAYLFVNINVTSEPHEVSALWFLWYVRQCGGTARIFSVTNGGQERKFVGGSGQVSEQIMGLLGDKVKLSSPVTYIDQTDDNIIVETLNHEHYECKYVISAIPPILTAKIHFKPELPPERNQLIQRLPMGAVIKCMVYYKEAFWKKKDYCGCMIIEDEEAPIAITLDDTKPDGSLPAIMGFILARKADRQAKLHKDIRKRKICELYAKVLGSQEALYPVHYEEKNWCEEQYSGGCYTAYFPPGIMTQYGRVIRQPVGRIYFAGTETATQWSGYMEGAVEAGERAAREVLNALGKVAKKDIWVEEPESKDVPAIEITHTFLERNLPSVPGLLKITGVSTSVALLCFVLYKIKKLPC

[8] = biological target: T2, Amine oxidase [flavin-containing] A; assay: biochemical
[9] = biological target: T2, Amine oxidase [flavin-containing] A; assay: biochemical; remark: listed apart in the source
[10] = biological target: T2, Amine oxidase [flavin-containing] A; assay: Irreversible inhibition of human recombinant MAO-A expressed in baculovirus infected BTI insect cells assessed as residual activity at 0.01 uM incubated for 30 mins using kynuramine as substrate by spectrophotometric analysis relative to control; details: 0.5 h, read-out: Activity
[11] = biological target: T2, Amine oxidase [flavin-containing] A; assay: Irreversible inhibition of human recombinant MAO-A expressed in baculovirus infected BTI insect cells assessed as residual activity at 0.01 uM incubated for 30 mins followed by dialysis using kynuramine as substrate by spectrophotometric analysis relative to control; details: 0.5 h, read-out: Activity
[12] = biological target: T2, Amine oxidase [flavin-containing] A; assay: Inhibition of human recombinant MAO-A expressed in baculovirus infected BTI-TN-5B1-4 insect cells using p-tyramine as substrate after 15 mins by resorufin dye-based spectrometric analysis
[13] = biological target: T2, Amine oxidase [flavin-containing] A; assay: Reversible inhibition of human recombinant MAO-A expressed in baculovirus infected BTI insect cells assessed as residual activity at 1.5 uM incubated for 30 mins using kynuramine as substrate by spectrophotometric analysis relative to control; details: 0.5 h, read-out: Activity
[14] = biological target: T2, Amine oxidase [flavin-containing] A; assay: Reversible inhibition of human recombinant MAO-A expressed in baculovirus infected BTI insect cells assessed as residual activity at 1.5 uM incubated for 30 mins followed by dialysis using kynuramine as substrate by spectrophotometric analysis relative to control; details: 0.5 h, read-out: Activity
[15] = biological target: T2, Amine oxidase [flavin-containing] A; assay: Inhibition of human MAO-A using kynuramine as substrate after 30 mins by spectrophotometric analysis
[16] = species: Homo sapiens; assay: Selectivity index, ratio of IC50 for human recombinant MAO-B to IC50 for human recombinant MAO-A
[17] = biological target: T2, Amine oxidase [flavin-containing] A; assay: Reversible inhibition of human recombinant MAO-A expressed in baculovirus infected BTI insect cells assessed as residual activity at 2 uM incubated for 30 mins using kynuramine as substrate by spectrophotometric analysis relative to control; details: 0.5 h, read-out: Activity
[18] = biological target: T2, Amine oxidase [flavin-containing] A; assay: Reversible inhibition of human recombinant MAO-A expressed in baculovirus infected BTI insect cells assessed as residual activity at 2 uM incubated for 30 mins followed by dialysis using kynuramine as substrate by spectrophotometric analysis relative to control; details: 0.5 h, read-out: Activity

Sequence of Acetylcholinesterase (O42275 whole entry): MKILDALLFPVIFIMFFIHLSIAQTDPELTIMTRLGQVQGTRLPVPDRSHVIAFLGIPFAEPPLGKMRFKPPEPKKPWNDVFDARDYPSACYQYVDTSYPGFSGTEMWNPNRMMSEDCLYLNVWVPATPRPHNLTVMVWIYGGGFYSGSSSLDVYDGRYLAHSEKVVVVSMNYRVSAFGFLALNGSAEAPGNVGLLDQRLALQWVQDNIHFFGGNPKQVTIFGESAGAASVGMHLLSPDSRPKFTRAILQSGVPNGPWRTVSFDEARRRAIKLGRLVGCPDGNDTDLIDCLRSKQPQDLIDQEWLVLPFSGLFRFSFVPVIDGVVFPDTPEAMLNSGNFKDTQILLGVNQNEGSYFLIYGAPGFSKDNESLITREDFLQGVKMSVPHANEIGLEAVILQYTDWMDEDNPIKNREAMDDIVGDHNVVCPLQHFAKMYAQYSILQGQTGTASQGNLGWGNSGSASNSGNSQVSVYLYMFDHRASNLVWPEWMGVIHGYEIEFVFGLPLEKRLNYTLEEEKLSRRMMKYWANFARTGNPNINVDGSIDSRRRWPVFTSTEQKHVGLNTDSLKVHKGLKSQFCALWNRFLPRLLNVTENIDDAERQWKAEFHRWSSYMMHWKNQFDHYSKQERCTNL

| SMILES | activity at 10 µM [2] [%] | activity at 10 µM [3] [%] | IC50 [4] [µM] | IC50 [5] [µM] | Ratio IC50 [6] | IC50 [8] [µM] | further results |
| --- | --- | --- | --- | --- | --- | --- | --- |
| C=C(C)C(O)CC/C(C)=C/COc1ccc2ccc(=O)oc2c1 (stereo not drawn) | – | – | – | – | – | – | IC50 [1]: 1.3 µM |
| O=c1ccc2ccc3occc3c2o1 [ANGELICIN] | 12 | 27.2 | 2.73 | 25.4 | 3.1 | 0.88 | IC50 [7]: 9 µM; Ki [9]: 0.46 µM |
| O=c1ccc2c(ccc3ccoc32)o1 [BAKUCHICIN] | 18.6 | 37.8 | 5.44 | 35.7 | 3.1 | 1.78 | – |
| C#CCN(C)CCCOc1ccc(Cl)cc1Cl [CLORGILINE] | – | – | – | – | – | – | activity at 0.01 µM [10]: 20.4%; activity at 0.01 µM [11]: 23.3% |
| Oc1ccc(/C=C/c2cc(O)cc3c2[C@@H](c2cc(O)cc(O)c2)[C@H](c2ccc(O)cc2)O3)cc1 [EPSILON-VINIFERIN] | – | – | – | – | – | – | IC50 [12]: 19.6 µM |
| CC(C)=CCOc1c2ccoc2cc2oc(=O)ccc12 [ISOIMPERATORIN] | 76.2 | 78.3 | > 60 | 25.6 | – | > 20 | – |
| COc1ccc(-c2oc3cc(O)cc(O)c3c(=O)c2O)cc1 [KAEMPFERIDE] | – | – | – | – | 0.89 | 0.19 | – |
| CC(C)=CCc1c(O)ccc2ccc(=O)oc12 [OSTHENOL] | 9.9 | 84.7 | > 60 | 25.3 | > 81.1 | 0.74 | activity at 1.5 µM [13]: 23.7%; activity at 1.5 µM [14]: 90.7%; Ki [9]: 0.26 µM |
| O=c1ccc2cc3ccoc3cc2o1 [PSORALEN] | 71 | 78.3 | > 60 | 29.5 | – | > 20 | – |
| COc1cc(O)c2c(=O)c(O)c(-c3ccc(O)cc3)oc2c1 [RHAMNOCITRIN] | – | – | – | – | – | – | IC50 [15]: 0.051 µM; Ratio IC50 [16]: 58.2 |
| COc1cc2ccc(=O)oc2cc1O [SCOPOLETIN] | 97 | 97.7 | > 60 | 35.8 | – | > 20 | – |
| Cc1cccc(N2CC(CO)OC2=O)c1 (stereo not drawn) [TOLOXATONE] | – | – | – | – | – | – | activity at 2 µM [17]: 28.4%; activity at 2 µM [18]: 88.6% |

From ChEMBL document CHEMBL4422655, “Osthenol, a prenylated coumarin, as a monoamine oxidase A inhibitor with high selectivity” (Bioorg Med Chem Lett, 2019)
